Test results from patent US12404255B2, “Compound and pharmaceutical composition containing same for treating or preventing neural damage, neural disease, or developmental disorder through promoting proliferation, differentiation, and/or regeneration of neural cells” (ETNOVA THERAPEUTICS CORP., priority 2020, dated 2025).

Columns and labels:
SH-SY5Y [1] = assay: Changes in morphology of nerve cells (inverted microscope); assay type: cell-based, human; set-up: neurite elongation / change in cell morphology: dose or concentration left out as unconfirmed; conditions: microscope image
Method: For cell viability analysis, stabilized cells were planted in a 60 mm dish at a density of ×10^5 cells/dish. […] The next day, the growth medium was removed therefrom. […] Then, the cells were incubated therein for 1, 3, and 5 days, and under at 37° C. and 5% CO2 condition. Cell morphology was imaged with a Nikon inverted microscope (Nikon, ECLIPSE Ts2, Nikon Corporation, Tokyo, Japan).

SH-SY5Y [2] = assay: Neurite elongation promoting effect using immunofluorescence staining; assay type: cell-based, human; conditions: 10 μM
Source text: (§1) The calculated values were graphed using the GraphPad Prism application.

SH-SY5Y [3] = assay: Cell proliferation effect using immunofluorescence staining (Ki-67 positive cells); assay type: cell-based, human; conditions: 1st day of exposure
Method: The number of cells which were positive relative to Ki-67 as a marker for neuronal proliferation was analyzed. The number of the positive cells was automatically obtained using the ImageJ program. Ki-67 positive cells (%)=(ki-67 positive cell number/DAPI positive cell number)×100 [Calculation equation of Ki-67 positive cell number]
The calculated values were graphed using the GraphPad Prism application. […] The statistical significance of the obtained values was identified via one-way ANOVA with Dunnett's multiple comparison test. *p<0.5, **p<0.1, ***p<0.01 vs. control, #p<0.5, ##p<0.1 vs. DO3A, †p<0.5, †††p<0.01 vs. ATRA indicate presence of statistical significance.

[4] = Solubility test in deionized water; assay type: physicochemical
Method: In order to check the solubility of the compound according to the present disclosure, each of MMB-11903B according to the present disclosure prepared in the Preparation Example and ATRA was added to 1 mL of deionized water at a concentration of 100 mM (Compound MMB-11903B according to the present disclosure: 72.8 mg/mL; ATRA: 30.0 mg/mL) and each mixed solution was stirred for dissolution by lightly vortexing the same. After each of the prepared solution of the compound MMB-11903B according to the present disclosure and the prepared ATRA solution was left at room temperature for 20 minutes, an image thereof was taken again to observe a dissolution state of each compound in each solution (FIG. 1).
Thus, the compound MMB-11903B according to the present disclosure may be easily dissolved in the solvent such as water, so that it has high solubility, and further has solubility stability, so that it may maintain a dissolved state even after being left for a long time.

[5] = test system: human neuroblastoma SH-SY5Y; assay: Cell viability test using CCK-8; assay type: cell-based; conditions: CCK-8, 0-50 μM, 24, 48, 72 hours
Method: Cell viability analysis of a nerve cell line using CCK-8 was performed on human neuroblastoma SH-SY5Y as an undifferentiated nerve cell line. For reference, the analysis using the CCK-8 (Cell counting kit-8) was based on a highly water-soluble tetrazolium salt-SST-8. The analysis is based on the fact that when [2-(2-methoxy-4-nitrophenyl)-3-(4-nitrophenyl)(2,4-disulfophenyl)-2H-tetrazolium, monosodium salt] is reduced under presence of an electron mediator, a water-soluble formazan orange dye is produced, and an amount of the formazan dye produced by dehydrogenase in cells is directly proportional to the number of living cells. The specific experimental method is as follows.
The next day, the growth medium was removed therefrom. […] At 2 hours before a harvest time, 10 μL of CCK-8 solution was added to each well and the cells were incubated for an additional 2 hours. […] Cell viability (%)=B/A×100(%) [Cell viability calculation equation]
(In the equation, A denotes an absorbance value measured in a control well, and B denotes an absorbance value measured in the well containing the drug).

SH-SY5Y [6] = conditions: human, 24 h, 200 μM
Source text: as §1

SH-SY5Y [7] = assay: Neurite elongation and new neuron generation and growth using immunofluorescence staining (color histogram); assay type: cell-based, human; conditions: 10 μM, day 3
Method: For cell viability analysis, stabilized cells were planted in a 60 mm dish at a density of ×10^5 cells/dish. […] The next day, the growth medium was removed therefrom. […] Then, the cells were incubated therein for 1, 3, and 5 days, and under at 37° C. and 5% C02 condition. The cells were harvested and were washed with DPBS, and fixed with 10% Neutral Buffered Formalin for 10 minutes, washed 3 times with Tris-buffered saline (TBS), and then a reaction thereof was carried out for 15 minutes in 0.3% Triton X-100 (in TBS). The cells were washed three times in TBS, and a solution of 5% Bovine serum albumin (BSA) and Normal Goat Serum (NGS) in TBS was added thereto and a reaction thereof was carried out at 4° C. for 24 hours. Differentiation into the nerve cells and formation of the neurite were identified using j-III tubulin primary antibody as a neuron specific marker and doublecortin primary antibody as a newborn immature neuron marker. […] The cells were washed three times with TBS, and were mounted (VECTASHIELD® Mounting Medium with DAPI; Vector Laboratories, Burlingame, CA, USA), and images were acquired with a fluorescence microscope. […]
The color histogram was measured using the ImageJ program.

SMILES | neurite elongation / change in cell morphology (SH-SY5Y [1]; 1, 3, and 5 days) | apoptosis due to cytotoxicity (SH-SY5Y [1]; 5-20 μM, 1-5 days) | neurite length versus control (SH-SY5Y [2]; ImageJ measurement after fluorescent staining) | neurite elongation in fluorescence image (SH-SY5Y [2]; 1, 3, and 5 days, tubulin and doublecortin staining) | cell proliferation (Ki-67 positive cells) versus control (SH-SY5Y [3]) | dissolution state immediately after dissolution ([4]; 100 mM in 1 mL deionized water, light vortexing, initial state) | dissolution state after being left ([4]; 100 mM in deionized water, left at room temperature for 20 minutes) | cell viability, dependence on concentration and time [5] | cytotoxicity (SH-SY5Y [6]) | expression level of new neurons (color histogram) (SH-SY5Y [7])
O=C(O)CN1CCNCCN(CC(=O)O)CCN(CC(=O)O)CC1 [DO3A] | neurite elongation was not observed | observed at 10 μM, 5 days and at 20 μM, and 3 days | did not achieve the neurite elongation as in the control | neurite elongation was not observed | approximately two times larger than the control |  |  |  |  | 
CC1=C(/C=C/C(C)=C/C=C/C(C)=C/C(=O)O)C(C)(C)CCC1 [ATRA, all-trans retinoic acid] |  |  |  |  | did not exhibit a significant difference from that of the control | uniformly dissolved in the solution initially | separated from the solvent and was precipitated over time | the higher the concentration of ATRA and the longer the time, the lower the cell viability | approximately 55% | low expression level of new neurons
